Literature values as cited in article PMC12465416 (BMC Infectious Diseases, 2025).
Counter-ions that a name gives are not always drawn. Where a SMILES comes first, the peptide text is derived from it. Bridges are numbered along the chain shown (N, C = ends). [ ]: non-standard residue; d: D form. The star is where a group is joined. X1 = CC[C@H](C)CCCCC(=O)*; Dab = NCC[C@H](N)C(=O)O

Settings: IV PMB alone to treat CRGNB pneumonia

CC[C@H](C)CCCCC(=O)N[C@@H](CCN)C(=O)N[C@H](C(=O)N[C@@H](CCN)C(=O)N[C@H]1CCNC(=O)[C@H]([C@@H](C)O)NC(=O)[C@H](CCN)NC(=O)[C@H](CCN)NC(=O)[C@H](CC(C)C)NC(=O)[C@@H](Cc2ccccc2)NC(=O)[C@H](CCN)NC1=O)[C@@H](C)O [PMB, polymyxin B sulfate] (X1-[Dab]T[Dab][Dab][Dab][dF]L[Dab][Dab]T; lactam 4-C)
drug concentrations in ELF compared with those in plasma: significantly lower
